Measured values as given in PMC3607822 (The Journal of General Physiology, 2013).
Positions count from the first letter of the chain named. Like-named read-outs stand apart in the source and are kept apart here.

Columns and labels:
Assay type in all cases: biochemical
[1] = molecular target: T1, CNGA3 N7R-A, 613X channels (Homo sapiens, UniProt Q16281, R101A/R103A/R72A/R75A/R81A/R82A/R86A); assay: Inside-out patch clamp, CNGA3 N7R-A, 613X
T1 sequence (Q16281 1-612 R72A/R75A/R81A/R82A/R86A/R101A/R103A limits assumed): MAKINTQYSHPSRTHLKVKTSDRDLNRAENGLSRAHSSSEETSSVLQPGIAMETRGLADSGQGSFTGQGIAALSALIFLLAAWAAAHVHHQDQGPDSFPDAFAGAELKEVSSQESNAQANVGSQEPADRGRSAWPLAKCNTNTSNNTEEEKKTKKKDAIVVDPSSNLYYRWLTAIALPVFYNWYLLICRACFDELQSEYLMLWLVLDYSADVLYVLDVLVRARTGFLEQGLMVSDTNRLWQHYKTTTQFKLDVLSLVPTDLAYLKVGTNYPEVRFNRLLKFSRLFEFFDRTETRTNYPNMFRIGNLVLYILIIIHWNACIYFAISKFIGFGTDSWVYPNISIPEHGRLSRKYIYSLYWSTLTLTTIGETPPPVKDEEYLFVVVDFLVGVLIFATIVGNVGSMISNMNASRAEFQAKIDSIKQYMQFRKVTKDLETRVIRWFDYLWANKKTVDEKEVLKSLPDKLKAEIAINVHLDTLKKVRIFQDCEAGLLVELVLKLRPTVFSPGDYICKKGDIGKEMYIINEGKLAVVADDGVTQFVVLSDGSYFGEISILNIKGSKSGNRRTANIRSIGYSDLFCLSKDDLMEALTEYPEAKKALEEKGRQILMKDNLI

[2] = molecular target: T2, heteromeric CNGA3+CNGB3 channels (Homo sapiens, UniProt Q16281+Q9NQW8); assay: Inside-out patch clamp, heteromeric CNGA3+CNGB3; details: for EC50: read-out: K1/2 cGMP
T2 sequence (Q16281 1-694): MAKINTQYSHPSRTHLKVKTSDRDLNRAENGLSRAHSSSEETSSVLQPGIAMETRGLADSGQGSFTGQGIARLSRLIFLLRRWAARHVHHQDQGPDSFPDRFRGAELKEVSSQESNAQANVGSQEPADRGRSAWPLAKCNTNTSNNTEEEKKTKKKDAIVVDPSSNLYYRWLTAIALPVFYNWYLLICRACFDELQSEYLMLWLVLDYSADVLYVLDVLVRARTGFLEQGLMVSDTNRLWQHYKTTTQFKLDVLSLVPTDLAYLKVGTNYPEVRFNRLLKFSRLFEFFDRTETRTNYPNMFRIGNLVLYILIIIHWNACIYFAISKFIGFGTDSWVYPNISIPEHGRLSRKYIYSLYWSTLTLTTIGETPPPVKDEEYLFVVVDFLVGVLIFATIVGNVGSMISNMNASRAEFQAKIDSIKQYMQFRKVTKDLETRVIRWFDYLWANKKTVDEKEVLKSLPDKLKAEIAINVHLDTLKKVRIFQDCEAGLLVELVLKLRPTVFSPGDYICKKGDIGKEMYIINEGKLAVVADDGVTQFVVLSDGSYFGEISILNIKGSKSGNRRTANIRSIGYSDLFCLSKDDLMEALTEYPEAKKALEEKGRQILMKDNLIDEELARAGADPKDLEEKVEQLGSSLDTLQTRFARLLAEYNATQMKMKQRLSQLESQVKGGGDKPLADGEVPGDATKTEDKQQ
T2 sequence (Q9NQW8 1-809): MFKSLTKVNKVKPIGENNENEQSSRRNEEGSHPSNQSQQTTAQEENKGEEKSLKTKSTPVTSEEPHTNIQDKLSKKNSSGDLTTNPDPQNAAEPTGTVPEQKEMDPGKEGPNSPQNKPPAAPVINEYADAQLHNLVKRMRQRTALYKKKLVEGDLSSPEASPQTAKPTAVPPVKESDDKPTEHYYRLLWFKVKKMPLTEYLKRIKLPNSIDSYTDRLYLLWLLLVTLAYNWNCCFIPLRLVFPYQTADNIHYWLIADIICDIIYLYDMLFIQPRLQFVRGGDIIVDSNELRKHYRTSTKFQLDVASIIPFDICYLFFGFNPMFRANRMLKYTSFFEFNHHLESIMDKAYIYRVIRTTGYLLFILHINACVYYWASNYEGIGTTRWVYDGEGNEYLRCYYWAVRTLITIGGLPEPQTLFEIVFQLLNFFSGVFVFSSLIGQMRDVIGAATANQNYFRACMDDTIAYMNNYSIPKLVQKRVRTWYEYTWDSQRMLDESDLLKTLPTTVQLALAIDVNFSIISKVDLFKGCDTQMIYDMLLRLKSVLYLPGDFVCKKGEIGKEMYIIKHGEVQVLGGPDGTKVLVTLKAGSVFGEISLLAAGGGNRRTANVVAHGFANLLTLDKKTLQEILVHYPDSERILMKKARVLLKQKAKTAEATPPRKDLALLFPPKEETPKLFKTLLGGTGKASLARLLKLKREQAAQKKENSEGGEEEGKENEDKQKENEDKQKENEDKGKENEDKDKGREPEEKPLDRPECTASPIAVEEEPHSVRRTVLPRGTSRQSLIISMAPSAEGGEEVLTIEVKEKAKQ

[3] = molecular target: T3, CNGA3 P99L, A105P (PA-LP) channels (Homo sapiens, UniProt Q16281, A105P/P99L); assay: Inside-out patch clamp, CNGA3 P99L, A105P; details: for EC50: read-out: K1/2 cGMP
T3 sequence (Q16281 1-694 P99L/A105P): T2 sequence (Q16281 1-694) with P99L, A105P

[4] = representative patch, before PIP2
[5] = representative patch, before PIP3
[6] = mean, after 1 µM PIP3 or 10 µM PIP2
[7] = representative patch, after PIP3 or PIP2
[8] = representative patch, 1 µM PIP3

`Nc1nc2c(ncn2[C@@H]2O[C@@H]3COP(=O)(O)O[C@H]3[C@H]2O)c(=O)[nH]1` [cGMP, cyclic guanosine monophosphate] was tested. Which Hill coefficient ([1]; cGMP activation) did it give?
Its Hill coefficient is 1.82 ± 0.04 (6).

What about the EC50 ([1]; read-out: K1/2 cGMP, +80 mV, no PIPn) of the same compound?
The EC50 was 16.4 ± 1.65 µM.

And the Hill coefficient h ([2]; mean, before PIPn)?
Its Hill coefficient h is 1.9.

And the EC50 ([2]; mean, before PIPn)?
The EC50 was 13.5 ± 0.6 µM.

What about the EC50 [2, 4] of the same compound?
The EC50 was 12.8 µM.

What about the EC50 [2, 5] of the same compound?
Its EC50 is 16.1 µM.

And the Hill coefficient h [2, 4]?
Its Hill coefficient h is 1.8.

And the Hill coefficient h [2, 5]?
The Hill coefficient h was 2.05.

And the EC50 ([3]; +80 mV, no PIPn)?
The EC50 was 5.3 ± 0.18 µM.

And the EC50 [3, 5]?
The EC50 was 5.7 µM.

What about the Hill coefficient h [3, 5] of the same compound?
The Hill coefficient h was 1.7.

And the “Po max cGMP” value ([3]; saturating cGMP)?
The value was 0.95 ± 0.01 (4).

For “phosphatidylinositol (3,4,5)-trisphosphate [PIP3]”, which “fold change in K1/2 cGMP after PIP3” value ([1]; 10 µM PIP3) is on record?
Its value is 1.02 ± 0.05 fold.

What about the “fold shift of K1/2 cGMP to higher concentration” value ([2]; 1 µM PIP3) of the same compound?
Its value is about 1.5 fold.

What about the “effect on currents elicited by 5 µM cGMP” value ([2]; 1 µM PIP3 or 10 µM PIP2) of the same compound?
Its value is “attenuated the currents”.

What about the “Imax cAMP/cGMP after phosphoinositide” value ([2]; after PIP2 or PIP3 application) of the same compound?
Its value is 0.30 ± 0.03.

And the “Hill coefficient h after phosphoinositide” value [2, 6]?
Its value is 1.6.

And the “K1/2 cGMP after phosphoinositide” value [2, 6]?
The value was 20.8 ± 1.4 µM.

What about the “Hill coefficient h after phosphoinositide” value [2, 7] of the same compound?
Its value is 2.0.

What about the “K1/2 cGMP after phosphoinositide” value [2, 7] of the same compound?
Its value is 26.5 µM.

What about the “Imax cGMP compared with initial values” ([2]; saturating cGMP, after 1 µM PIP3 or 10 µM PIP2) of the same compound?
The value was 95.4 ± 2.8%.

And the “Hill coefficient h after phosphoinositide” value ([3]; after PIP3 or PIP2 application)?
Its value is 1.8.

And the “K1/2 cGMP after phosphoinositide” value ([3]; after PIP3 or PIP2 application)?
The value was 9.4 ± 0.9 µM.

What about the “Hill coefficient h after PIP3” value [3, 8] of the same compound?
The value was 1.7.

And the “K1/2 cGMP after PIP3” value [3, 8]?
The value was 11.4 µM.
